Experimental data: US20150250166A1, “NOOTKATONE AS AN INSECTICIDE AND INSECT REPELLENT” (ALLYLIX, INC., priority 2012, published 2015)

Test system: adult cat fleas (Ctenocephalides felis)
Test: Cat flea repellency, treated versus untreated paper towel halves in payliner
Format: in vivo
Conditions: for Percent Repellency (corrected for isopropanol control) / cat fleas on 10% Nootkatone-treated paper towel, average count of five trials (of 10): 10% nootkatone, 0.1% BHT in isopropanol
Procedure: A formulation, containing 10% nootkatone, 0.1% butylated hydroxytoluene (BHT) in isopropanol was tested for efficacy for repelling adult cat fleas (Ctenocephalides felis). Equal amounts of 10% nootkatone solution, stored at ambient temperature and humidity, were applied to five semi-circular pieces of paper towels, arranged so that they were evenly spaced on a sheet of aluminum foil, until sufficiently wet to the touch. Five untreated semi-circular pieces were marked with the letter “c”, for control, on both sides in pencil or solvent resistant ink. Each of the semi-circular pieces of paper towel had the diameter of a 5-gallon payliner. Immediately after spraying the paper towels with the nootkatone solution, the treated towels were placed in 5 5-gallon payliners. The untreated semi-circular paper towels were also placed in the payliners, with the flat sides of the semi-circle side-by-side with those of the treated pieces, so that the bottoms of the payliners were completely covered with paper towel, half treated and half untreated. Five additional payliners with one semi-circular paper towel treated with isopropyl alcohol and the other untreated served as controls. A 9 dram vial, containing 10 cat fleas (El Labs Inc (Soquel, Calif.)) was emptied onto each of the untreated paper towels in the payliners (total of 10 payliners). The distribution of the cat fleas on the control vs. treated paper towels was recorded at 0.5, 1, 1.5, 2, and 24 hours. Observations were made quietly to minimize the disturbance to the fleas by the observer. The containers were kept at ambient temperature and humidity for the duration of the study. The repellency was calculated from the following equation: R=[(C−T)/C]*100, where R is the % repellency, C is the fraction of fleas on the isopropanol-treated paper towel pieces, and T is the fraction of fleas on the nootkatone-treated paper towel pieces.

Structure (SMILES): C=C(C)[C@@H]1CCC2=CC(=O)C[C@@H](C)[C@]2(C)C1 [nootkatone, 4,4a,5,6,7,8-hexahydro-6-isopropenyl-4,4a-dimethyl-2(3H)-naphtalenone]
- cat flea repellency, in words (10% nootkatone in isopropyl alcohol): does not repel cat fleas
- Percent Repellency (corrected for isopropanol control) (0.5 hr): −40.0%
- cat fleas on 10% Nootkatone-treated paper towel, average count of five trials (of 10) (0.5 hr): 5.6
- Percent Repellency (corrected for isopropanol control) (1 hr): 9.5%
- cat fleas on 10% Nootkatone-treated paper towel, average count of five trials (of 10) (1 hr): 3.8
- Percent Repellency (corrected for isopropanol control) (1.5 hr): 9.5%
- cat fleas on 10% Nootkatone-treated paper towel, average count of five trials (of 10) (1.5 hr): 3.8
- Percent Repellency (corrected for isopropanol control) (2 hr): 20.0%
- cat fleas on 10% Nootkatone-treated paper towel, average count of five trials (of 10) (2 hr): 3.2
- Percent Repellency (corrected for isopropanol control) (24 hr): 38.9%
- cat fleas on 10% Nootkatone-treated paper towel, average count of five trials (of 10) (24 hr): 2.2
